One assay has as its system KCC2 mRNA. The assay can be described thus: KCC2 mRNA RT-qPCR in rat primary cortical neurons. The class given is cell-based. The settings on record: primary rat cortical neurons; 0.1, 0.2, 0.5 μM KP. The protocol:
Total RNA was isolated from cultured cell samples using Directzol RNA miniprep kit (ZymoResearch). The protocol includes DNAse digestion to exclude genomic DNA from preparations. Total RNA (1 μg) was reverse transcribed using oligo primers (dT) and SuperScriptIII first-strand synthesis kit (Invitrogen). Gene expression was assessed by quantitative real-time PCR using 2×SYBR Green Master Mix (Qiagen) and a three-step cycling protocol (anneal at 60° C./elongate at 72° C., denature at 95° C.). Specificity of primers was verified by dissociation/melting curve for the amplicons when using SYBR Green as a detector. All reactions were performed in triplicates. The amount of target messenger RNA (mRNA) in the experimental group relative to that in the control was determined from the resulting fluorescence and threshold values (Ct) using the ΔΔCt method. βIII-tubulin was used as housekeeping gene. oligodT-initiated reverse transcription of 1 μg total RNA, DNA-se treated, was subjected to RT-qPCR using primers specific for KCC2 for rat and KCC2 for human sequences, normalized for neuronal βIII-tubulin, as previously described (Yeo et al., 2009, J Neurosci 29:14652-14662). For cultured neurons, total RNA was extracted from pelleted cells, and for spinal cord tissue it was extracted from microdissected lumbar spinal cord dorsal horn.

In a further assay the test system is δ-cat. The assay can be described thus: δ-cat nuclear translocation in primary neurons, immunolabeling morphometry. The class given is cell-based, rat. The settings on record: KP vs vehicle, FIG. 8C. As for the experimental part:
Immunocytochemistry labeling of cultured neuronal cells was carried out as previously described (Liedtke et al., 2013, Small 9, 1066-1075; Yeo et al., 2009, J Neurosci 29:14652-14662; Yeo et al., 2013, Proc Natl Acad Sci USA 110:4315-4320). Primary antibodies are shown in the antibody table. Anti-KCC2 primary antibodies were validated with developing rat primary cortical neurons; we observed an increase in staining pattern that tightly matched increase of KCC2 mRNA expression (Liedtke et al., 2013, Small 9:1066-1075; Yeo et al., 2009, J Neurosci 29:14652-14662.; Yeo et al., 2013, Proc Natl Acad Sci USA 110:4315-4320). Secondary antibodies used were goat anti-mouse IgG Alexa Fluor 594 (Invitrogen A11032) and goat anti-rabbit IgG Alexa Fluor 594 (Invitrogen A11012). DAPI stain was obtained from Sigma Aldrich (D9542). Stained cells were observed using an inverted confocal microscope (Zeiss LSM780).
We obtained stacks of images recorded at 0.35 μm intervals through separate channels with a 63× oil-immersion lens (NA, 1.40, refraction index, 1.45). Zen software (Zeiss) was used to construct composite images from each optical series by combining the images recorded through the different channels, and the same software was used to obtain Z projection images (image resolution: 1024×1024 pixels; pixel size: 0.11 μm). ImageJ was used for morphometry. […]

Take `O=C1Cc2c([nH]c3ccc(Br)cc23)-c2ccccc2N1` [kenpaullone, 9-bromo-7,12-dihydro-indolo [3,2-d] [1]benzazepin-6(5H)-one]: the “KCC2 mRNA expression” value in the assay on KCC2 mRNA was “dose-dependent increase”. The δ-cat nuclear translocation entry in the assay on δ-cat is on record as “significantly increases”.
